Assay results reported in PubChem BioAssay AID248 (DTP/NCI, 2004).
Where “and” joins values, the source holds several entries; their conditions need not be identical. Equal entries are not always repeated. Inconclusive results and toxic doses are left out.

Test system: L1210 leukemia ip in BDF1 mice, survival T/C
Assay: NCI In Vivo Anticancer Drug Screen. Data for tumor model L1210 Leukemia (intraperitoneal) in B6D2F1 (BDF1) mice
Conditions: endpoint: mean survival time, higher = longer survival
Summary of the method: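 In this screen, tumor-bearing mice given compound are compared to those given vehicle, and their survival values are reported as a treated-to-control quotient.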

[1] = dose: 100.0 mg/kg/injection, schedule: Q01DX009 (ip), vehicle: saline with Tween-80
[2] = dose: 200.0 mg/kg/injection, schedule: Q01DX009 (ip), vehicle: saline with Tween-80
[3] = dose: 100.0 mg/kg/injection, schedule: Q04DX003 (ip), vehicle: saline with Tween-80
[4] = dose: 200.0 mg/kg/injection, schedule: Q04DX003 (ip), vehicle: saline with Tween-80
[5] = dose: 100.0 mg/kg/injection, schedule: Q01DX001 (ip), vehicle: other
[6] = dose: 200.0 mg/kg/injection, schedule: Q01DX001 (ip), vehicle: other
[7] = dose: 400.0 mg/kg/injection, schedule: Q01DX001 (ip), vehicle: other
[8] = dose: 100.0 mg/kg/injection, schedule: Q04DX002 (ip), vehicle: saline with Tween-80
[9] = dose: 400.0 mg/kg/injection, schedule: Q04DX002 (ip), vehicle: saline with Tween-80
[10] = dose: 400.0 mg/kg/injection, schedule: Q04DX003 (ip), vehicle: saline with Tween-80
[11] = dose: 200.0 mg/kg/injection, schedule: Q04DX002 (ip), vehicle: saline with Tween-80

COc1ccc(OCCOC(=O)Nc2cccc(C(F)(F)F)c2)cc1
T/C [1]: 109 % of control
T/C [2]: 96 % of control
T/C (dose: 400.0 mg/kg/injection, schedule: Q01DX009 (ip), vehicle: saline with Tween-80): 91 % of control

CCNC(C)(C)C(S)c1ccc(Cl)s1 (configuration not stated)
T/C (dose: 50.0 mg/kg/injection, schedule: Q01DX009 (ip), vehicle: saline with Tween-80): 106 % of control
T/C [1]: 114 % of control
T/C [3]: 103 % of control
T/C [4]: 94 % of control

CCn1c(/C=N/NC(N)=S)cc2ccccc21
T/C (dose: 50.0 mg/kg/injection, schedule: Q01DX001 (ip), vehicle: other): 104 % of control
T/C [5]: 109 % of control
T/C [6]: 104 % of control
T/C [7]: 104 % of control

O=c1[nH]c2ccccc2[nH]1
T/C (dose: 12.5 mg/kg/injection, schedule: Q04DX002 (ip), vehicle: Klucel (hydroxypropylcellulose) (HPC)): 90 % of control
T/C (dose: 25.0 mg/kg/injection, schedule: Q04DX002 (ip), vehicle: Klucel (hydroxypropylcellulose) (HPC)): 87 % of control
T/C (dose: 50.0 mg/kg/injection, schedule: Q01DX009 (ip), vehicle: Klucel (hydroxypropylcellulose) (HPC)): 95 % of control
T/C (dose: 50.0 mg/kg/injection, schedule: Q04DX002 (ip), vehicle: Klucel (hydroxypropylcellulose) (HPC)): 90 % of control
T/C (dose: 75.0 mg/kg/injection, schedule: Q01DX009 (ip), vehicle: Klucel (hydroxypropylcellulose) (HPC)): 94 % of control
T/C (dose: 115.0 mg/kg/injection, schedule: Q01DX009 (ip), vehicle: Klucel (hydroxypropylcellulose) (HPC)): 97 % of control
T/C (dose: 170.0 mg/kg/injection, schedule: Q01DX009 (ip), vehicle: Klucel (hydroxypropylcellulose) (HPC)): 89 % of control

C(=C\c1nc2ccccc2s1)/c1ccccc1
T/C (dose: 100.0 mg/kg/injection, schedule: Q04DX003 (ip), vehicle: saline): 103 % of control
T/C (dose: 200.0 mg/kg/injection, schedule: Q04DX003 (ip), vehicle: saline): 93 % of control
T/C (dose: 400.0 mg/kg/injection, schedule: Q04DX003 (ip), vehicle: saline): 104 % of control

N=c1ccccn1CC(Cl)COc1ccccc1 (configuration not stated)
T/C (dose: 100.0 mg/kg/injection, schedule: Q01DX001 (ip), vehicle: saline): 104 % of control

CN(C)CCC(N)c1cccc2ccccc12 (configuration not stated)
T/C (dose: 25.0 mg/kg/injection, schedule: Q04DX002 (ip), vehicle: saline with Tween-80): 91 % of control
T/C (dose: 50.0 mg/kg/injection, schedule: Q04DX002 (ip), vehicle: saline with Tween-80): 116 % of control
T/C [8]: 98 % of control

CCCCCC(=N\N=C(N)N)/C(C)=N/N=C(N)N
T/C (dose: 7.5 mg/kg/injection, schedule: Q01DX Z (ip), vehicle: saline): 106 % of control
T/C (dose: 15.0 mg/kg/injection, schedule: Q01DX Z (ip), vehicle: saline): 111 % of control
T/C (dose: 30.0 mg/kg/injection, schedule: Q01DX Z (ip), vehicle: saline): 93 % of control

c1ccc(N(c2ccccc2)C(c2ccccc2)(c2ccccc2)c2ccccc2)cc1
T/C (dose: 25.6 mg/kg/injection, schedule: Q04DX002 (ip), vehicle: saline with Tween-80): 93 % of control
T/C (dose: 64.0 mg/kg/injection, schedule: Q04DX002 (ip), vehicle: saline with Tween-80): 104 % of control
T/C [3]: 89 % of control
T/C (dose: 160.0 mg/kg/injection, schedule: Q04DX002 (ip), vehicle: saline with Tween-80): 95 % of control
T/C [4]: 92 % of control
T/C [9]: 95 % of control
T/C [10]: 685 % of control

O=C1CCC2=C(CCCCCCCCCC2)N1c1ccccc1
T/C [3]: 105 % of control
T/C [4]: 105 % of control
T/C [10]: 94 % of control

O=[N+]([O-])c1ccccc1-c1ccccc1[N+](=O)[O-]
T/C [8]: 97 % of control
T/C [11]: 90 % of control
T/C [9]: 87 % of control

CC(C)OC(=O)c1ccccc1-c1ccccc1
T/C [5]: 102 % of control
T/C [6]: 96 % of control
T/C [7]: 87 % of control

COC(=O)c1ccc(OC(=O)Nc2ccccc2[N+](=O)[O-])cc1
T/C [1]: 97 % of control and 101 % of control
T/C [8]: 104 % of control and 110 % of control
T/C [3]: 107 % of control
T/C [2]: 96 % of control and 92 % of control
T/C [11]: 103 % of control and 104 % of control
T/C [4]: 113 % of control
T/C [9]: 94 % of control
T/C [10]: 101 % of control
